The results in this text go back to patent publication US20160101076A1, “Use of Sumoylation Inhibitors for Treating Cancer” (priority 2013, published 2016).

In one assay the test system is sKD-C cells. The assay is described as follows: Gene/protein expression and CD44+/CD24-/low FACS in sKD-C cells treated with sumoylation inhibitors. The class given is cell-based, human. The settings on record: for CD44+/CD24-/low population by FACS analysis / CD44 expression by Western blot: s-KD-C cells, FIG. 6A; for ability to repress CD44 expression with knockdown of TFAP2A: TFAP2A siRNA, Western blot FIG. 6B. How it is done:
(§1) The human breast cancer cell lines (MCF-7, SKBR-3, BT-20, BT-549, MCF-10A) were obtained from American Type Culture Collection. sKD-C cells were subcloned from parental MCF-7 cells with stable knockdown of TFAP2C as described (Cyr et al., 2014). ER<-positive tumors and the basal cancer tumor were obtained from surgical resection specimens. Cell suspensions were prepared with gentle collagenase/hyaluronidase (Stemcells) (Ponti et al., 2005). A new cell line was established from the basal tumor cells, called IOWA-1T (manuscript in preparation).
Total RNA was isolated and analyzed as previously described. Expression values were normalized to the mean of 18S rRNA 4319413E-0803037 (Applied Biosystems) as endogenous control.
(§2) Western blots were performed as previously described (Cyr et al., 2014; Kulak et al., 2013). For immunoprecipitations anti-TFAP2A, anti-GFP antibody (Life Technologies) or IgG (#sc-2025, Santa Cruz Biotechnology) were cross-linked with Dynabeads protein A (Life Technologies). MCF7 protein was incubated with Dynabeads protein A-Abs complex, protein complexes were washed with DPBS (Gibco) with 0.01% Tween (Research Products International Corp.), and eluted with SDS loading buffer.
(§3) Cells were plated ([…]/10 cm2) and treated with 10 μM gingolic or anacardic acid (Sigma) for 2-4 days and collected for qPCR, Western blot and FACS analysis.
(§4) FACS analysis was performed as previously described (Roederer and Hardy, 2001).
(In general: A flow cytometer gives signals particle by particle.)

Assay [1] concerns cells derived from a primary basal cancer. The assay is described as follows: CD44 Western blot and CD44+/CD24-/low FACS in cells from a primary basal breast cancer. In kind it is cell-based, human. The settings on record: for CD44 expression by Western blot: cells derived from a primary basal cancer, FIG. 6A; for CD44+/hi/CD24-/low CSC population: cells harvested from primary basal breast tumor refractory to chemotherapy, treated in vitro, FACS FIG. 6A. How it is done: In addition, cells from a primary basal breast cancer were treated in vitro in parallel. The cancer was from a patient with locally advanced breast cancer that was refractory to conventional chemotherapy. Remarkably, treatment with GA or AA cleared the CD44^+/hi/CD24^−/low CSC population from the cells harvested from the primary tumor (FIG. 6A, last panel). By contrast, GA/AA treatment of MCF-10A cells, a normal breast cell line model, had no effect on CD44 expression and had no effect on the percentage of cells expressing stem cell markers.
as §1, §2, §3, §4
On the technique in general: A western blot detects proteins with antibodies after separation by electrophoresis.

Another assay concerns MCF-10A cells. The assay can be described thus: CD44 expression and stem cell markers in normal breast cell line MCF-10A. The class given is cell-based, human. The following applies: MCF-10A normal breast cell line. How it is done:
as §1, §2, §3, §4

For assay [2], the system named is SUMO-conjugated proteins, SUMO-conjugated form of TFAP2A in BT549 cells. The assay is described as follows: Western blot of SUMO-conjugated proteins in BT549 cells. In kind it is cell-based, human. The settings on record: vs vehicle. How it is done: FIG. 16. Anacardic Acid Inhibits SUMO-conjugated Proteins. Western blots were performed on protein extracts of BT549 cells treated with vehicle (V) or anacardic acid (AA) and reacted with antibodies for SUMO1, TFAP2A or GAPDH, as indicated. Equal amounts of protein were loaded in each lane. […] GAPDH control indicates equal loading of protein. MW indicates molecular weight markers.
as §2, §3

The test system of assay [3] is BT20 xenografts. The assay can be described thus: BT20 xenografts from cells pretreated before inoculation. In kind it is in vivo. The following applies: BT20 cells pretreated for 48 hours prior to inoculation in nude mice; FIG. 8A. The text has this:
(§5) FIGS. 8A-8D. SUMO Inhibitors Repressed Outgrowth of Xenografts. FIG. 8A. […] FIG. 8B. Tumor-free survival of nude mice (n=5 per group) inoculated with BT20 cells with animals gavaged with AA vs. vehicle. FIG. 8C. IOWA-1T cells were pre-treated with anacardic acid (AA) or vehicle and mice were followed until requiring euthanasia due to tumor size (Overall Survival). […] FIG. 8D. Nude mice were inoculated with 1×10^6, 5×10^5, or 2.5×10^5 IOWA-1T cells and animals were gavaged with either vehicle or AA; vehicle-gavaged mice developed tumors in 5, 10 and 12 days, respectively.
(§6) To address the effects of GA and AA on tumor initiation, BT20 cells were pretreated with GA or AA compared to vehicle prior to inoculation of xenografts in nude mice. As noted in FIG. 8A, pretreatment of the cells repressed the formation of tumor xenografts, whereas, vehicle treated cells formed xenografts with a median time of 8 weeks. […] We created a breast carcinoma cell line (IOWA-1T) from the basal tumor-derived cells used in FIG. 6A. The IOWA-1T cell line rapidly forms locally advanced tumors in nude mice. Identical experiments using the IOWA-1T basal cell line confirmed that either pre-treating the cancer cells or gavaging animals with AA repressed tumor initiation of xenografts (FIGS. 8C and 8D). […]

Assay [4] deals with BT20 xenografts. The assay is described as follows: BT20 xenografts, animals gavaged. In kind it is in vivo. The settings on record: BT20 xenografts in nude mice, animals gavaged vs vehicle; FIG. 8B.
Source text: as §5, §6

The subject of assay [5] is IOWA-1T xenografts. The assay can be described thus: IOWA-1T xenografts from pre-treated cells. In kind it is in vivo. The settings on record: IOWA-1T cells pre-treated vs vehicle, nude mice; p=0.002; FIG. 8C.
Source text: as §5
(§7) To address the effects of GA and AA on tumor initiation, BT20 cells were pretreated with GA or AA compared to vehicle prior to inoculation of xenografts in nude mice. As noted in FIG. 8A, pretreatment of the cells repressed the formation of tumor xenografts, whereas, vehicle treated cells formed xenografts with a median time of 8 weeks. […] We created a breast carcinoma cell line (IOWA-1T) from the basal tumor-derived cells used in FIG. 6A. The IOWA-1T cell line rapidly forms locally advanced tumors in nude mice. Identical experiments using the IOWA-1T basal cell line confirmed that either pre-treating the cancer cells or gavaging animals with AA repressed tumor initiation of xenografts (FIGS. 8C and 8D).
(§8) Statistical analysis was performed using the two-sided Student's T-test for continuous variables. […]

The subject of assay [6] is IOWA-1T xenografts. The assay can be described thus: IOWA-1T xenografts, animals gavaged. The settings on record: nude mice inoculated with 1×10^6, 5×10^5 or 2.5×10^5 IOWA-1T cells, gavaged vs vehicle; p=0.025; FIG. 8D. The class given is in vivo.
Source text: as §5, §7, §8

The test system of assay [7] is Colorectal cancer stem cells (CSC). The assay can be described thus: Stem cell markers in primary colorectal cancer stem cells (qPCR, Western blot). The settings on record: 10 μM, 48 hours. The class given is cell-based. How it is done:
[…]: qPCR, CD44 downregulation after treatment of colorectal CSC with anacardic acid, 48 h. […]: qPCR, ALCAM (activated leucocyte cell adhesion molecule) after treatment of colorectal CSC with anacardic acid, 48 h. FIG. 17C: qPCR, EPCAM (epithelial cell adhesion molecule) after treatment of colorectal CSC with anacardic acid, 48 h. FIG. 17D: Western blot, CD44 downregulation after treatment of colorectal CSC with anacardic acid, 48 h.
Informed consent primary colorectal tumor material was obtained during operation and was transferred to lab. Colorectal cancer stem cells (CSC) were isolated accordingly Cammareri et al, 2008 and treated with 10 μM anacardic acid within 48 hours.
(In general: Real-time PCR tracks product formation cycle by cycle.)

Where [8] appears, read: sKD-C cells, compared to vehicle treatment, mRNA and protein (FIG. 5E), 10 μM, 2-4 days.

For `CCCCCCCCCCCCCCCc1cccc(O)c1C(=O)O` [AA, Anacardic acid (C15:0)], in the assay with sKD-C cells (10 μM, 2-4 days), the “CD44+/CD24-/low population by FACS analysis” value is on record as “significantly reduced” and the “CD44 expression by Western blot” value is given as “inhibited”. Besides, in the assay with sKD-C cells (sKD-C cells), the “ability to repress CD44 expression with knockdown of TFAP2A” value was “completely eliminated”. In assay [1], the “CD44 expression by Western blot” value is reported as “inhibited” and the “CD44+/hi/CD24-/low CSC population” value is listed as “cleared”. In addition, in the assay with MCF-10A cells, the CD44 expression entry is “no effect” and the “percentage of cells expressing stem cell markers” value is reported as “no effect”. In addition, in assay [2] (Western blot FIG. 16), the “SUMO conjugated form of TFAP2A” value is listed as “inhibited” and the “overall expression of TFAP2A” value is “decrease slightly”. For the same molecule, the “SUMO conjugation of proteins globally” value in [2] (Western blot SUMO1 antibody, FIG. 16) is “inhibited”. Further, in the assay with BT20 xenografts [3], the “formation of tumor xenografts (tumor free survival)” value is “repressed”. The “tumor formation (tumor-free survival)” value in the assay on BT20 xenografts [4] is given as “failed to form tumors”. For the same molecule, the “tumor formation (overall survival)” value in the assay with IOWA-1T xenografts [5] is “inhibited tumor formation”. Further, the tumor formation result in the assay with IOWA-1T xenografts [6] was “failed to form tumors”. Besides, the “CD44 by qPCR” value in assay [7] (FIG. 17A) is “down regulated”. Also, the “ALCAM by qPCR” value in [7] (FIG. 17B) is on record as “down regulated”. Moreover, the “EPCAM by qPCR” value in assay [7] (FIG. 17C) was “down regulated”. The “CD44 by Western blot” value in assay [7] (FIG. 17D) is recorded as “reduction”.
Turning to `CCCCCC/C=C\CCCCCCCc1cccc(O)c1C(=O)O` [GA, (Z)-6-(Pentadec-8-enyl)-2-hydroxybenzoic acid], in the assay with sKD-C cells (10 μM, 2-4 days), the “CD44+/CD24-/low population by FACS analysis” value is given as “significantly reduced” and the “CD44 expression by Western blot” value is “inhibited”. For the same molecule, the “ability to repress CD44 expression with knockdown of TFAP2A” value in the assay on sKD-C cells (sKD-C cells) was “completely eliminated”. Besides, the TFAP2C expression result with sKD-C cells (sKD-C cells, compared to vehicle treatment, FIG. 5E) was “without altering”. The FREM2 expression result in the assay on sKD-C cells (sKD-C cells, compared to vehicle treatment, FIG. 5E, 10 μM, 2-4 days) is recorded as “induced”. Besides, in the assay with sKD-C cells (setting [8]), the CD44 expression entry is “repressed” and the ERα expression entry is recorded as “induced”. In [1], the “CD44 expression by Western blot” value is “inhibited” and the “CD44+/hi/CD24-/low CSC population” value is listed as “cleared”. In the assay on MCF-10A cells, the CD44 expression result is “no effect” and the “percentage of cells expressing stem cell markers” value is on record as “no effect”. The “formation of tumor xenografts (tumor free survival)” value in the assay on BT20 xenografts [3] is on record as “repressed”.
